Test results as given in patent US20200078290A1, “Cosmetic Composition Comprising Extract Of Medicinal Herbs As Active Ingredient” (LG Household & Health Care Ltd., priority 2016, published 2020).

Tests used:
[1] = tested on: human-derived fibroblasts; assay: Promotion of type 1 collagen synthesis in human fibroblasts (PICP EIA kit); type: cell-based; conditions: positive control, 52.85 ppm
Protocol: Seven kinds of extracts obtained in Preparation Example 1 were added to culture media of human-derived fibroblasts in order to confirm the effect of promoting type I collagen synthesis at the cellular level. The synthesized collagen was measured and quantitated using a PICP EIA kit (Procollagen Type I C-Peptide Enzyme Immuno Assay Kit). In order to measure the amount of synthesized collagen, the extracts of Examples 1 to 7 were added to the culture media (DMEM medium) of the fibroblasts at final concentrations of 1,000 ppm and 10,000 ppm, and cultured for 48 hours. The culture broth was collected and the degree of type 1 collagen synthesis was measured with a PICP EIA kit at 450 nm using a spectrophotometer. For the comparison of the effects, the degree of collagen synthesis was measured in the same manner for the culture medium of the fibroblasts not treated with the extract (negative control) and the culture medium (positive control) in which vitamin C was added to a final concentration of 52.85 ppm. The rate of increase in collagen production was calculated as a ratio of collagen production relative to negative control, and the results are shown in Table 3 below. The experiments were conducted four times and the results are expressed as an average value.

RAW264.7 cell line = assay: Inhibition of NO production in LPS-stimulated RAW264.7 cells (GRIESS method); type: cell-based, mice; conditions: positive control, 10 ppm, RAW264.7, LPS
Protocol: In order to confirm the anti-inflammatory effect and the skin trouble-improving effect of the seven extracts obtained in Preparation Example 1, an experiment on the inhibition of nitrogen monoxide (NO) formation was conducted by the GRIESS method using RAW264.7 cell line (ATCC number: CRL-2278).
Specifically, RAW264.7 cells, which were macrophages of mice, were subcultured several times, and the cultured cells were put into a 24-well plate at a density of 3×10^5 […], and cultured for 24 hours. Subsequently, the cells were replaced with cell culture media containing the above-mentioned 7 kinds of extracts diluted to concentrations of […]. […] 100 μL of the supernatant was collected and transferred to a 96-well plate, and 100 μL of GRIESS solution was added thereto and reacted at room temperature for 10 minutes, and then the absorbance at 540 nm was measured to determine the NO inhibitory effect of the extracts. The NO production inhibition rate (%) was calculated using the following Calculation Equation 2, and the results are shown in Table 6. The experiments were each carried out three times, and the results are expressed as an average value.
Inhibition Rate of NO Production (%)={(Absorbance of negative control−Absorbance of each extract)/Absorbance of negative control}×100 [Calculation Equation 2]

| SMILES | Increased rate (collagen production relative to negative control) [1] [%] | Production amount of type 1 collagen ([1]; average of 4) [ng/mL] | Inhibition Rate of NO Production (RAW264.7 cell line) [%] |
| --- | --- | --- | --- |
| O=C1O[C@H]([C@@H](O)CO)C(O)=C1O [Vitamin C, vitamin C] | 64.3 | 246.8 |  |
| CNC(=N)NCCC[C@H](N)C(=O)O [L-NMMA, L-NG-monomethylarginine] |  |  | 41.0 |
